In ChEMBL document CHEMBL5678812, “Inhibitors of p21-activated kinases (PAKs)” (J Med Chem, 2015) one finds inhibition data, which are given here for 2 compounds.

One assay has as its target TAK1/TAB1 (Homo sapiens) (UniProt Q15750+O43318). Briefly: Inhibition of TAK1-TAB1 (unknown origin) at 0.1 uM relative to control. It counts as protein-complex assay.
Assay [1] deals with Angiopoietin-1 receptor (Homo sapiens) (UniProt Q02763). Briefly: Inhibition of Tie2 (unknown origin) at 0.1 uM relative to control.
Assay [2] concerns the target Cyclin-dependent kinase 7/ cyclin H (Homo sapiens) (UniProt P51946+P50613). Kind of assay: Inhibition of CDK7/CyclinH (unknown origin) at 0.1 uM relative to control. It counts as protein-complex assay.
The target of assay [3] is Serine/threonine-protein kinase 26 (Homo sapiens) (UniProt Q9P289). Briefly: Inhibition of MST4 (unknown origin) at 0.1 uM relative to control.
In assay [4] the target is Phosphatidylinositol 4,5-bisphosphate 3-kinase catalytic subunit gamma isoform (Homo sapiens) (UniProt P48736). Kind of assay: Inhibition of PI3Kgamma (unknown origin) at 0.1 uM relative to control.
Assay [5] addresses cAMP-dependent protein kinase (PKA) (Homo sapiens) (UniProt P22694+P17612+P22612). Kind of assay: Inhibition of PKA (unknown origin) at 0.1 uM relative to control. It counts as protein assay.
Assay [6] has as its target Receptor-interacting serine/threonine-protein kinase 2 (Homo sapiens) (UniProt O43353). Kind of assay: Inhibition of RIPK2 (unknown origin) at 0.1 uM relative to control.
Assay [7] addresses Aurora kinase B (Homo sapiens) (UniProt Q96GD4). Briefly: Inhibition of Aurora B (unknown origin) at 0.1 uM relative to control.
For assay [8], the target named is Serine/threonine-protein kinase BRSK1 (Homo sapiens) (UniProt Q8TDC3). Briefly: Inhibition of BrSK1 (unknown origin) at 0.1 uM relative to control.
Assay [9] has as its target Cyclin-dependent kinase 5/CDK5 activator 1 (Homo sapiens) (UniProt Q00535+Q15078). Kind of assay: Inhibition of CDK5/p25 (unknown origin) at 0.1 uM relative to control. It counts as protein-complex assay.
The target of assay [10] is Casein kinase I isoform alpha (Homo sapiens) (UniProt P48729). Kind of assay: Inhibition of CK1alpha1 (unknown origin) at 0.1 uM relative to control.
The target of assay [11] is Calcium/calmodulin-dependent protein kinase type II subunit delta (Homo sapiens) (UniProt Q13557). Kind of assay: Inhibition of CaMKIIdelta (unknown origin) at 0.1 uM relative to control.
For assay [12], the target named is Dual specificity tyrosine-phosphorylation-regulated kinase 1A (Homo sapiens) (UniProt Q13627). Briefly: Inhibition of DYRK1A (unknown origin) at 0.1 uM relative to control.
Assay [13] has as its target Ephrin type-A receptor 8 (Homo sapiens) (UniProt P29322). Kind of assay: Inhibition of EphA8 (unknown origin) at 0.1 uM relative to control.
Assay [14] has as its target Ephrin type-B receptor 3 (Homo sapiens) (UniProt P54753). Kind of assay: Inhibition of EphB3 (unknown origin) at 0.1 uM relative to control.
For assay [15], the target named is Fibroblast growth factor receptor 4 (Homo sapiens) (UniProt P22455). Briefly: Inhibition of FGFR4 (unknown origin) at 0.1 uM relative to control.
Assay [16] concerns the target Tyrosine-protein kinase Fgr (Homo sapiens) (UniProt P09769). Briefly: Inhibition of Fgr (unknown origin) at 0.1 uM relative to control.
Assay [17] addresses Tyrosine-protein kinase FRK (Homo sapiens) (UniProt P42685). Briefly: Inhibition of Frk (unknown origin) at 0.1 uM relative to control.
In assay [18] the target is Beta-adrenergic receptor kinase 1 (Homo sapiens) (UniProt P25098). Briefly: Inhibition of GRK2 (unknown origin) at 0.1 uM relative to control.
The target of assay [19] is G protein-coupled receptor kinase 6 (Homo sapiens) (UniProt P43250). Kind of assay: Inhibition of GRK6 (unknown origin) at 0.1 uM relative to control.
The target in assay [20] is Homeodomain-interacting protein kinase 2 (Homo sapiens) (UniProt Q9H2X6). Briefly: Inhibition of HIPK2 (unknown origin) at 0.1 uM relative to control.
Assay [21] deals with Interleukin-1 receptor-associated kinase 4 (Homo sapiens) (UniProt Q9NWZ3). Briefly: Inhibition of IRAK4 (unknown origin) at 0.1 uM relative to control.
Assay [22] has as its target Tyrosine-protein kinase ITK/TSK (Homo sapiens) (UniProt Q08881). Kind of assay: Inhibition of Itk (unknown origin) at 0.1 uM relative to control.
The target of assay [23] is Tyrosine-protein kinase Lck (Homo sapiens) (UniProt P06239). Kind of assay: Inhibition of Lck (unknown origin) at 0.1 uM relative to control.
In assay [24] the target is Tyrosine-protein kinase Lyn (Homo sapiens) (UniProt P07948). Briefly: Inhibition of Lyn (unknown origin) at 0.1 uM relative to control.
The target of assay [25] is Dual specificity mitogen-activated protein kinase kinase 2 (Homo sapiens) (UniProt P36507). Kind of assay: Inhibition of MEK2 (unknown origin) at 0.1 uM relative to control.
In assay [26] the target is MAP kinase-interacting serine/threonine-protein kinase 1 (Homo sapiens) (UniProt Q9BUB5). Kind of assay: Inhibition of MKNK1 (unknown origin) at 0.1 uM relative to control.
For assay [27], the target named is SRSF protein kinase 3 (Homo sapiens) (UniProt Q9UPE1). Kind of assay: Inhibition of MSSK1 (unknown origin) at 0.1 uM relative to control.
The target of assay [28] is Mitogen-activated protein kinase kinase kinase kinase 4 (Homo sapiens) (UniProt O95819). Briefly: Inhibition of NIK (unknown origin) at 0.1 uM relative to control.
Assay [29] has as its target Phosphatidylinositol 4,5-bisphosphate 3-kinase catalytic subunit delta isoform (Homo sapiens) (UniProt O00329). Kind of assay: Inhibition of PI3Kdelta (unknown origin) at 0.1 uM relative to control.
Assay [30] has as its target Protein kinase C zeta type (Homo sapiens) (UniProt Q05513). Briefly: Inhibition of PKCzeta (unknown origin) at 0.1 uM relative to control.
Assay [31] has as its target Phosphorylase b kinase gamma catalytic chain, liver/testis isoform (Homo sapiens) (UniProt P15735). Briefly: Inhibition of PhKgamma2 (unknown origin) at 0.1 uM relative to control.
The target in assay [32] is Serine/threonine-protein kinase Sgk2 (Homo sapiens) (UniProt Q9HBY8). Briefly: Inhibition of SGK2 (unknown origin) at 0.1 uM relative to control.
Assay [33] has as its target BDNF/NT-3 growth factors receptor (Homo sapiens) (UniProt Q16620). Briefly: Inhibition of TrkB (unknown origin) at 0.1 uM relative to control.
Assay [34] deals with Tyrosine-protein kinase Yes (Homo sapiens) (UniProt P07947). Kind of assay: Inhibition of Yes (unknown origin) at 0.1 uM relative to control.
In assay [35] the target is Death-associated protein kinase 3 (Homo sapiens) (UniProt O43293). Kind of assay: Inhibition of ZIPK (unknown origin) at 0.1 uM relative to control.
The target of assay [36] is Serine/threonine-protein kinase mTOR (Homo sapiens) (UniProt P42345). Briefly: Inhibition of mTOR (unknown origin) at 0.1 uM relative to control.
The target in assay [37] is Mitogen-activated protein kinase 11 (Homo sapiens) (UniProt Q15759). Kind of assay: Inhibition of p38beta (unknown origin) at 0.1 uM relative to control.

Chain of Homeodomain-interacting protein kinase 2 (Homo sapiens) (Q9H2X6 whole entry, looked up): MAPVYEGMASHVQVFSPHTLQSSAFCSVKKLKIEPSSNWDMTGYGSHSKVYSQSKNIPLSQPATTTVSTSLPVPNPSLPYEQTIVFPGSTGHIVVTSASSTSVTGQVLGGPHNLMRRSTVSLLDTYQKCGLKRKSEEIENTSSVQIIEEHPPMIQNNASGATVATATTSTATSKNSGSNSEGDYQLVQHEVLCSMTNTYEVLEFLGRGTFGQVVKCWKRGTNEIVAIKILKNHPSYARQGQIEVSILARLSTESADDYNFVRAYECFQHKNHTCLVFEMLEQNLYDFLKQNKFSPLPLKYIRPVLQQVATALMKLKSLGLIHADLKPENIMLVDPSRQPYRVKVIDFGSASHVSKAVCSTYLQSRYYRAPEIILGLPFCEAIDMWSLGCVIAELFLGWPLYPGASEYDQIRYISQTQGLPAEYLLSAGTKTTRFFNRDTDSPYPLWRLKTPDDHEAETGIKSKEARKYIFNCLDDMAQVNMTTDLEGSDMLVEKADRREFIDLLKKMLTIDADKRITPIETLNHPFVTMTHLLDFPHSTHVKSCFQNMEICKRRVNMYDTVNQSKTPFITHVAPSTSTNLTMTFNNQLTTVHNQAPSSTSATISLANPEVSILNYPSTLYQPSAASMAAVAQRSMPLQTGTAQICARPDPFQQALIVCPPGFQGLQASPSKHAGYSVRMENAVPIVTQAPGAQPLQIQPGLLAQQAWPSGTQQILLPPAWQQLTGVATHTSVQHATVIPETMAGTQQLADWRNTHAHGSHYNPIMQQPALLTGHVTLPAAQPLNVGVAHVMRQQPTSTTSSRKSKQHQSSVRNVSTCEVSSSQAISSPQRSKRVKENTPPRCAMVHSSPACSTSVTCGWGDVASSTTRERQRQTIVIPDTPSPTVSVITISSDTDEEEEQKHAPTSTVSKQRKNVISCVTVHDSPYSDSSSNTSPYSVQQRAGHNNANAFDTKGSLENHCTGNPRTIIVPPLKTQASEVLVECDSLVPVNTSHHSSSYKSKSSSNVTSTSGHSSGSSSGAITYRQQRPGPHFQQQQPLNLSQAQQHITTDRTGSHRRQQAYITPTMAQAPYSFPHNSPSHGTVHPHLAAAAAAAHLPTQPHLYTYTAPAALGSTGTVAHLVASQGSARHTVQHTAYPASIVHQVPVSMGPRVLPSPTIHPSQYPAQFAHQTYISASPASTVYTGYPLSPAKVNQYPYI
Chain of Casein kinase I isoform alpha (Homo sapiens) (P48729 2-337 limits assumed): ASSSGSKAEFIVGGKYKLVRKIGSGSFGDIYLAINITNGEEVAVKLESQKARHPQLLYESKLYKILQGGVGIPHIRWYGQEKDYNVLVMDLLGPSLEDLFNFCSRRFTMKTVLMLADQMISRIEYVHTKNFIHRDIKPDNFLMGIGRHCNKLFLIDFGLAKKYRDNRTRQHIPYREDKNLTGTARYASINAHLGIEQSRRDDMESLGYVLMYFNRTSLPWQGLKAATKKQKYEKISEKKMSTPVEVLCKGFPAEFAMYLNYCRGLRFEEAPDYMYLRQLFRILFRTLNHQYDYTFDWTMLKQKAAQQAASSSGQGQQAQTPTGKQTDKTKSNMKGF
Chain of Mitogen-activated protein kinase kinase kinase kinase 4 (Homo sapiens) (O95819 2-1239 limits assumed): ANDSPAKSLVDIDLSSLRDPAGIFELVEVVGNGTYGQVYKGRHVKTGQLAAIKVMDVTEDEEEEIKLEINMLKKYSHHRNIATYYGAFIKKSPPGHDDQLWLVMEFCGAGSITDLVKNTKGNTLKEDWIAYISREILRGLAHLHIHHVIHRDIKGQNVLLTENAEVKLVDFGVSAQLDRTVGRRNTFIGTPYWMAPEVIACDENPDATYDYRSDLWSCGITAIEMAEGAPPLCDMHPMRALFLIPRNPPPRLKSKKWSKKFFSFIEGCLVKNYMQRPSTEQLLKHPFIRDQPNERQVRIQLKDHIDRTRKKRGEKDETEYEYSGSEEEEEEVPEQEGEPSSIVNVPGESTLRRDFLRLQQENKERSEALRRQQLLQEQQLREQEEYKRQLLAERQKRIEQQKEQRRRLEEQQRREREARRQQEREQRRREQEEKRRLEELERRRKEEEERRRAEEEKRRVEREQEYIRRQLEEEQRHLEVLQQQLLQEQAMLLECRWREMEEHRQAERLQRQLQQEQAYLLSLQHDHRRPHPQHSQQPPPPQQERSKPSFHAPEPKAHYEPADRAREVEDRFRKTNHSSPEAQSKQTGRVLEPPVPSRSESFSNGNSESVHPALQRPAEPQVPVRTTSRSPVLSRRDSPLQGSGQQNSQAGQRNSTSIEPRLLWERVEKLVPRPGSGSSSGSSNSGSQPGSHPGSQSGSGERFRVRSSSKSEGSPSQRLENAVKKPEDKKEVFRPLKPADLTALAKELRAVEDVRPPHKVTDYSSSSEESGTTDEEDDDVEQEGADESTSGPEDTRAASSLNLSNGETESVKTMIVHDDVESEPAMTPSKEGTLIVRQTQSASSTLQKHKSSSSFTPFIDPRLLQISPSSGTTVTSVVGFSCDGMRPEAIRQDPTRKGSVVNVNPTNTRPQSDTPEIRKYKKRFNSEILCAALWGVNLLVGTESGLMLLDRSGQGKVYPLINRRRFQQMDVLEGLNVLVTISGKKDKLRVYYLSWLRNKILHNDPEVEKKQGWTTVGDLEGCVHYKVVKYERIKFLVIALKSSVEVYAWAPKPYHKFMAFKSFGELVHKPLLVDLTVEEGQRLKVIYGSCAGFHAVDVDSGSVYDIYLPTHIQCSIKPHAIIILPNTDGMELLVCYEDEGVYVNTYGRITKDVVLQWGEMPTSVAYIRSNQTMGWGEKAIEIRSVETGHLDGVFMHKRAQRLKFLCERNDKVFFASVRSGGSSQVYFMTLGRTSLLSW
Chain of Tyrosine-protein kinase Fgr (Homo sapiens) (P09769 2-529 limits assumed): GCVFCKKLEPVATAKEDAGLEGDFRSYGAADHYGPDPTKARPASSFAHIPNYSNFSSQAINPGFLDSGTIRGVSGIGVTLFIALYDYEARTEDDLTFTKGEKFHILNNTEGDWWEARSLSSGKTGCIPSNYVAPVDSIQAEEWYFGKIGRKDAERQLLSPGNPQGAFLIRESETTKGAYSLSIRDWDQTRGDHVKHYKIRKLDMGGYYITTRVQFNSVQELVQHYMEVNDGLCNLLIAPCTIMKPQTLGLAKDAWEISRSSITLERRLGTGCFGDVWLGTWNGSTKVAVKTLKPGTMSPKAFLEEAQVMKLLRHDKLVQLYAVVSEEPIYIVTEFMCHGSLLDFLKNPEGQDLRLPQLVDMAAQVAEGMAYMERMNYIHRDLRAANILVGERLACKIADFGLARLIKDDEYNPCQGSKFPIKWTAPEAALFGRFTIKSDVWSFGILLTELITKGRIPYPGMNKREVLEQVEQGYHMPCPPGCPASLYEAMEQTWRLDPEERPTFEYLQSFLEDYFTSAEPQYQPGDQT
Chain of Interleukin-1 receptor-associated kinase 4 (Homo sapiens) (Q9NWZ3 whole entry): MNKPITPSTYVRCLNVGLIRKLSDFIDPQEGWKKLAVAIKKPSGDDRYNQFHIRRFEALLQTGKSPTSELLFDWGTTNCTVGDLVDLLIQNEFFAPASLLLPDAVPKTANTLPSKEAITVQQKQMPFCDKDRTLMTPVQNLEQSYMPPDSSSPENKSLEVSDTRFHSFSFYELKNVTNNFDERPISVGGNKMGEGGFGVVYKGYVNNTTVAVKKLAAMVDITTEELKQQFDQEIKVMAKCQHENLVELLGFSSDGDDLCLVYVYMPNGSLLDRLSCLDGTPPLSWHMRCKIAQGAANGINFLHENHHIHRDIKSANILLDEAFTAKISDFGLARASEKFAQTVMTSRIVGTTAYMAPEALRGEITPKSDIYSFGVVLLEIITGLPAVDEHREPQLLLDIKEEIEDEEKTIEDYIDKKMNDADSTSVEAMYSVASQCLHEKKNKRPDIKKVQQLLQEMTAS
Chain of Ephrin type-B receptor 3 (Homo sapiens) (P54753 whole entry): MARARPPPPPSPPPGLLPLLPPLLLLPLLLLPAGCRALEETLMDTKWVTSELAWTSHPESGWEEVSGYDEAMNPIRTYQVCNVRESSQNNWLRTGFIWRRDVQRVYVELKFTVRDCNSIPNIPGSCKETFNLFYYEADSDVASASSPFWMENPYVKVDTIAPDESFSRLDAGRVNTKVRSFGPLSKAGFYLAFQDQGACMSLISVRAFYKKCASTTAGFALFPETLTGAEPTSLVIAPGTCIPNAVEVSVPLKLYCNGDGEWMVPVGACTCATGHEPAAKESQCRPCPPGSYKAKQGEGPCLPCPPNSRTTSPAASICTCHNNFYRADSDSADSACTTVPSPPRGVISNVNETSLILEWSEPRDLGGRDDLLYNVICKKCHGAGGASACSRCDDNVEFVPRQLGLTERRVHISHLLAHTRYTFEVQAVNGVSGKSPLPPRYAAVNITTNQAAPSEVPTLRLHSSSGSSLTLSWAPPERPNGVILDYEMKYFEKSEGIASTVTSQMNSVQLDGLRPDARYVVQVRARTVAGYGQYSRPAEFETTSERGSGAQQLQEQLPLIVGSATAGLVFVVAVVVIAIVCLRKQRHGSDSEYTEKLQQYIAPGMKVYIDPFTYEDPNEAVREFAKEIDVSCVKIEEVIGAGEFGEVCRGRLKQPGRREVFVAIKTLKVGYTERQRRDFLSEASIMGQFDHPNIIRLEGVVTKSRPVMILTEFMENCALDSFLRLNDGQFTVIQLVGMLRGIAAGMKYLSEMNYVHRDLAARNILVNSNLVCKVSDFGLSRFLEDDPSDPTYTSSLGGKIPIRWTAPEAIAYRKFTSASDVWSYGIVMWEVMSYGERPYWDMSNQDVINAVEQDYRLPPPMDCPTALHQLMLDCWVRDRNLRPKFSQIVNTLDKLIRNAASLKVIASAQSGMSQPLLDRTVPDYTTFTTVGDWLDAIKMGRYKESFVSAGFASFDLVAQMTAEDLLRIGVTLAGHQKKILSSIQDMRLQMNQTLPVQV

For orientation: inhibition means the relative decrease from the control value, in per cent. On to `CN1CCc2cc(-c3cnc4[nH]cc(C(=O)c5ccccc5Cl)c4c3)ccc2C1`, for which the inhibition against TAK1/TAB1 (Homo sapiens) was 27.9%; in [1] it was 24.8%; in assay [2], 31%; in [3] it was 82%; in assay [4] it was 4.1%; in assay [5] it was 13%. Further, the inhibition in assay [6] turned out to be 101%.

On to `COCCNc1nc2ccc(C#CC3(O)CCCCC3)cc2n1-c1ccnc(N)n1`, for which the inhibition is 4.7% in [7]; 4.6% in [8]; 4.3% in assay [9]; 8.8% in [10]; 6.9% in [11]; -2% in assay [12]. The inhibition was 9.8% in [13]; 5.5% in assay [14]; -1% in assay [15]; 3.6% in assay [16]; 13.1% in assay [17]; -9.6% in assay [18]. The inhibition in assay [19] is 11.7%; in [20], 2.8%; in [21], 4.3%; in [22], 4%; in assay [23], 7.6%; in [24] it was -2.7%. The inhibition in [25] was -0.6%; in assay [26] it was -2.7%; in assay [27], 9.8%; in [28], -0.5%; in [29] it was -4.8%; in [30] it was 22.8%. Moreover, the inhibition is 17.3% in assay [31]; -2.9% in assay [32]; 15.1% in assay [33]; -1.4% in assay [34]; 2.9% in assay [35]; -2.4% in assay [36]. Besides, the inhibition in assay [37] was -6.4%.
